{"source": "ChEMBL document CHEMBL4834480", "about": "“Discovery of 3,5-Dimethyl-4-Sulfonyl-1H-Pyrrole-Based Myeloid Cell Leukemia 1 Inhibitors with High Affinity, Selectivity, and Oral Bioavailability” (J Med Chem, 2021)", "key": {"MV4-11": {"system": "MV4-11", "test": "Antitumor activity against human MV4-11 cells xenografted in BALB/c nude mouse assessed as induction of tumor necrosis at 20 mg/kg, ip administered every two days for 14 days by hematoxyin-eosin staining based analysis", "format": "functional, organism-based", "details": "time 14.0 day"}, "[1]": {"test": "Apparent volume of distribution in Sprague-Dawley rat at 10 mg/kg, po measured up to 24 hrs by LC-MS/MS analysis", "format": "ADME, organism-based", "details": "in vivo"}, "[2]": {"test": "Oral bioavailability in Sprague-Dawley rat at 10 mg/kg measured up to 24 hrs by LC-MS/MS analysis", "format": "ADME, organism-based", "details": "in vivo"}, "Bcl-2-like protein 1": {"molecular_target": "Bcl-2-like protein 1 (Homo sapiens, UniProt Q07817)", "sequence (Q07817 whole entry, the tested form may be a part)": "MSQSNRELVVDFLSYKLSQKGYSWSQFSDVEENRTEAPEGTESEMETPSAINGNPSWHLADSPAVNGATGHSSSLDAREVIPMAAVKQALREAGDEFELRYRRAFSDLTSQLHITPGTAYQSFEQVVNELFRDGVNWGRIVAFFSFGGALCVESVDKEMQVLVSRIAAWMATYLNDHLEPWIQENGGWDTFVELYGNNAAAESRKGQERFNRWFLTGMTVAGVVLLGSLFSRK", "test": "Binding affinity to human partial length BCL-XL (M1 to R209 residues) expressed in bacterial expression system by BCL2SCAN assay"}, "K562": {"system": "K562", "test": "Induction of apoptosis in human K562 cells assessed as upregulation of cleaved PARP up to 5 uM measured after 48 hrs by Western blot analysis", "format": "functional, cell-based", "details": "dose microM <=5, time 48.0 hrs"}, "[3]": {"test": "Apparent volume of distribution in Sprague-Dawley rat at 3 mg/kg, iv measured up to 24 hrs by LC-MS/MS analysis", "format": "ADME, organism-based", "details": "in vivo, read-out: Vz"}, "[4]": {"test": "Toxicity in BALB/c nude mouse xenografted with human MV4-11 cells assessed as effect on heart at 60 mg/kg, po administered every two days for 14 days by hematoxyin-eosin staining based analysis", "format": "organism-based", "details": "in vivo, 336 h, time 14 day"}, "NCI-H929": {"system": "NCI-H929", "test": "Antiproliferative activity against human NCI-H929 cells assessed as decrease in cell viability measured after 72 hrs by MTT assay", "format": "functional, cell-based", "details": "NCI-H929, 72 h"}}, "note": "The source made the active and inactive calls. The calls are words filed in the database; no cut-off is given here."}
{"compound": "CC(=O)c1ccc(S(=O)(=O)c2c(C)c(C(=O)O)n(CCCOc3cc(C)c(Cl)c(C)c3)c2C)cc1", "values": [{"measurement": "Activity", "setting": "MV4-11", "result": "Active"}, {"measurement": "Vz", "setting": "[1]", "result": 6.65475, "unit": "L/kg"}, {"measurement": "bioavailability", "setting": "[2]", "result": 41.3, "unit": "%"}, {"measurement": "Kd", "setting": "Bcl-2-like protein 1", "result": "> 10000", "unit": "nM"}, {"measurement": "Activity", "setting": "K562", "result": "inactive"}, {"measurement": "Vd", "setting": "[3]", "result": 3.08, "unit": "L/kg"}, {"measurement": "Activity", "setting": "[4]", "result": "Non-Toxic"}, {"measurement": "IC50", "setting": "NCI-H929", "result": 360, "unit": "nM"}]}
